The values below come from ChEMBL document CHEMBL1201862, “PubChem BioAssay data set” (2004).

Each structure is given as a SMILES string.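 Five concentrations, 48 hours, 96-well plates. Abbreviation: GI50, concentration required for 50% inhibition of growth.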 The source made the active and inactive calls. Rule as the data show it: active = GI50 up to about 1.1 µM and inactive = higher.

Some test systems named below: U-251; HL-60; HCC 2998; SK-MEL-28; M14; SK-MEL-2; HCT-116; M19-MEL; SK-OV-3; SF-268; SK-MEL-5; NCI-H522; Malme-3M; SNB-75; CAKI-1; NCI-H226; NCI/ADR-RES; MDA-N; T47D; PC-3.
Holding throughout (experiment): inhibition of tumour cell growth, NCI panel, 48 h

As to `O=C1C2=C(CCCC2)Nc2cccc3ncn1c23`, the GI50 in the assay on U-251, in the assay on HL-60, in the assay on HCC 2998, with SK-MEL-28, in the assay with M14 and in the assay with SK-MEL-2 was > 100 µM (inactive) each time. Besides, the GI50 in the assay on HCT-116, in the assay with M19-MEL, in the assay on SK-OV-3, in the assay on SF-268, in the assay on SK-MEL-5 and with NCI-H522 was > 100 µM (inactive) each time. Also, the GI50 in the assay with Malme-3M is > 100 µM (inactive).

For `CN(c1ccccc1)c1cc2ccccc2nn1`, the GI50 in the assay with SNB-75 is 64.3 µM (inactive); with CAKI-1, > 100 µM (inactive); in the assay on U-251, 81.8 µM (inactive); in the assay with HL-60, 30.5 µM (inactive); in the assay on NCI-H226 it was > 100 µM (inactive); with SK-MEL-28, > 100 µM (inactive). For the same molecule, the GI50 is > 100 µM (inactive) in the assay with M14; > 100 µM (inactive) with SK-MEL-2; > 100 µM (inactive) in the assay with HCT-116; 59.2 µM (inactive) in the assay with M19-MEL; > 100 µM (inactive) in the assay on SK-OV-3; > 100 µM (inactive) with SF-268. Further, the GI50 was 43.2 µM (inactive) in the assay with SK-MEL-5, 27.6 µM (inactive) in the assay on NCI-H522 and 87.1 µM (inactive) in the assay on Malme-3M.

Consider `COc1ccc2[nH]c3c(O)nncc3c2c1`, for which the GI50 with SNB-75 is 16.4 µM (inactive); in the assay with U-251, > 100 µM (inactive); in the assay on HL-60 it was > 100 µM (inactive); in the assay on NCI-H226 it was > 100 µM (inactive); in the assay with HCC 2998, > 100 µM (inactive); in the assay on SK-MEL-28, > 100 µM (inactive). Also, the GI50 was > 100 µM (inactive) in the assay on M14; 71.3 µM (inactive) with SK-MEL-2; > 100 µM (inactive) in the assay with HCT-116; > 100 µM (inactive) with M19-MEL; 45.7 µM (inactive) with SK-OV-3; > 100 µM (inactive) in the assay on SF-268. Moreover, the GI50 in the assay on SK-MEL-5, with NCI-H522 and in the assay on Malme-3M was > 100 µM (inactive) each time.

As for `COC1=CC(=C(C#N)/C(=N\c2ccccc2)SC)C=C(OC)C1=O`, the GI50 is 95.3 µM (inactive) in the assay with SNB-75; > 100 µM (inactive) in the assay on CAKI-1; 0.352 µM (active) with U-251; 94.8 µM (inactive) with HCC 2998; > 100 µM (inactive) in the assay with SK-MEL-28; > 10 µM (inactive) in the assay with M14. The GI50 in the assay on HCT-116 was 29.9 µM (inactive); with M19-MEL it was 70.6 µM (inactive); in the assay on SK-OV-3, > 100 µM (inactive); in the assay with SK-MEL-5, 20.7 µM (inactive); in the assay with NCI-H522, 37.6 µM (inactive); in the assay on Malme-3M, > 100 µM (inactive).

For the molecule `CCCO/S(=N\S(=O)(=O)c1ccccc1)c1ccccc1[N+](=O)[O-]` (centres undefined), the GI50 in the assay with SNB-75 was > 100 µM (inactive); with CAKI-1 it was > 100 µM (inactive); with U-251, > 100 µM (inactive); with NCI-H226 it was > 100 µM (inactive); with HCC 2998, > 100 µM (inactive); in the assay on SK-MEL-28, 63.8 µM (inactive). Moreover, the GI50 in the assay with M14, in the assay on SK-MEL-2, in the assay on HCT-116, with M19-MEL, in the assay with SK-OV-3 and in the assay on SF-268 was > 100 µM (inactive) each time. Besides, the GI50 in the assay with SK-MEL-5, in the assay on NCI-H522 and with Malme-3M was > 100 µM (inactive) each time.

In the case of `COC(=O)c1ccccc1NC(=O)C(=O)NNC(=O)c1ccncc1`, the GI50 in the assay on SNB-75, in the assay on CAKI-1, with HL-60, with NCI-H226, in the assay with HCC 2998 and in the assay with SK-MEL-28 was > 100 µM (inactive) throughout. In addition, the GI50 in the assay on M14 is > 100 µM (inactive); in the assay with HCT-116 it was > 100 µM (inactive); with M19-MEL, > 100 µM (inactive); in the assay on SK-OV-3, > 100 µM (inactive); in the assay with SF-268 it was > 10 µM (inactive); with SK-MEL-5, > 100 µM (inactive). Besides, the GI50 in the assay with NCI-H522 and with Malme-3M was > 100 µM (inactive) in each case.

For `COP1(=O)CC2C(Cl)(Cl)C2(C)C1` (centres undefined), the GI50 in the assay with SNB-75, in the assay on U-251, with HL-60, in the assay with NCI-H226, with HCC 2998 and in the assay on SK-MEL-28 was > 100 µM (inactive) in each case. For the same molecule, the GI50 in the assay with M14, in the assay on HCT-116, in the assay on M19-MEL, with SK-OV-3, in the assay on SF-268 and in the assay with SK-MEL-5 was > 100 µM (inactive) in each case. In addition, in the assay on NCI-H522, the GI50 is > 100 µM (inactive).

As to `O/N=C1/CCCC/C1=C\c1ccc(Cl)c(Cl)c1`, the GI50 was 20.7 µM (inactive) in the assay with SNB-75; 32.5 µM (inactive) in the assay with CAKI-1; 17.3 µM (inactive) in the assay on U-251; 3.8 µM (inactive) in the assay on HL-60; 29 µM (inactive) with HCC 2998; 34.2 µM (inactive) in the assay with SK-MEL-28. Besides, the GI50 in the assay on M14 is 28.2 µM (inactive); with HCT-116, 17.2 µM (inactive); in the assay on M19-MEL, 37.3 µM (inactive); in the assay with SK-OV-3, 35.3 µM (inactive); in the assay with SF-268, 25.1 µM (inactive); in the assay with SK-MEL-5, 16.1 µM (inactive).

`Brc1ccc(/N=c2/nc3ccccn3n3nc(-c4ccccc4)cc23)cc1`: the GI50 was 52.4 µM (inactive) with SNB-75; 15.9 µM (inactive) in the assay with CAKI-1; 29 µM (inactive) with U-251; > 100 µM (inactive) in the assay with HL-60; 45.2 µM (inactive) with NCI-H226; 36 µM (inactive) in the assay with SK-MEL-28. Also, the GI50 in the assay on M14 is 13.7 µM (inactive); in the assay with SK-MEL-2, 9.57 µM (inactive); in the assay with HCT-116 it was 52.6 µM (inactive); in the assay with M19-MEL, 43.6 µM (inactive); with SK-OV-3, > 100 µM (inactive); in the assay with SF-268 it was 41.6 µM (inactive). For the same molecule, the figures for the GI50 in the assay with SK-MEL-5, with NCI-H522 and in the assay on Malme-3M were > 100 µM (inactive), 17.3 µM (inactive) and 4.34 µM (inactive), respectively.

For `CC(C)c1ccc2c(c1)CCC1C(C)(C)[C@@H](O)CC[C@]21C` (some centres undefined), the GI50 in the assay with SNB-75 is 19.6 µM (inactive); in the assay with CAKI-1, 50.1 µM (inactive); in the assay on U-251, 22.4 µM (inactive); in the assay with HL-60, 17.7 µM (inactive); with NCI-H226, 18.7 µM (inactive); in the assay on HCC 2998 it was 24.8 µM (inactive). Further, the GI50 is 44.5 µM (inactive) in the assay on SK-MEL-28; 27.9 µM (inactive) with M14; 18.5 µM (inactive) in the assay on HCT-116; 19.4 µM (inactive) in the assay on M19-MEL; 68.7 µM (inactive) with SK-OV-3; 39 µM (inactive) with SF-268. Further, the GI50 with SK-MEL-5 is 17.3 µM (inactive); in the assay with NCI-H522, 25 µM (inactive); in the assay on Malme-3M, 17 µM (inactive).

As for `CCCCCCCCCCCCCCCCCC(=O)NCCCNCCCNC(=O)CCCCCCCCCCCCCCCCC`, the GI50 in the assay with CAKI-1, in the assay with U-251, with HL-60, with NCI-H226, in the assay with HCC 2998 and in the assay on SK-MEL-28 was > 100 µM (inactive) in each case. The GI50 in the assay with M14, with HCT-116, in the assay on M19-MEL, in the assay on SK-OV-3, with SF-268 and in the assay with SK-MEL-5 was > 100 µM (inactive) each time. Also, the GI50 with Malme-3M is > 100 µM (inactive).

Regarding `C=CCCCN1CCCC(C)C1=S` (centres undefined), the GI50 in the assay on SNB-75 is 52 µM (inactive); in the assay on U-251, > 100 µM (inactive); in the assay with HL-60 it was > 100 µM (inactive); in the assay on NCI-H226, > 100 µM (inactive); with HCC 2998, > 100 µM (inactive); with SK-MEL-28 it was > 100 µM (inactive). Further, the GI50 with M14, with SK-MEL-2, with HCT-116, in the assay with M19-MEL, in the assay on SK-OV-3 and in the assay on SF-268 was > 100 µM (inactive) in each case. Moreover, the GI50 in the assay on SK-MEL-5, in the assay with NCI-H522 and in the assay on Malme-3M was > 100 µM (inactive) each time.

Consider `Clc1ccccc1C1=NN(c2ccccc2)C2c3ccccc3OCC12` (centres undefined), for which the GI50 with SNB-75 was > 100 µM (inactive); with U-251 it was > 100 µM (inactive); with HL-60 it was 41.6 µM (inactive); in the assay on HCC 2998, > 100 µM (inactive); with SK-MEL-28 it was > 100 µM (inactive); in the assay on SK-MEL-2, > 100 µM (inactive). Moreover, the GI50 in the assay on HCT-116 was 43.3 µM (inactive); in the assay on M19-MEL, > 100 µM (inactive); in the assay on SK-OV-3, > 100 µM (inactive); in the assay with SF-268, > 100 µM (inactive); with SK-MEL-5, 79.6 µM (inactive); with NCI-H522 it was > 100 µM (inactive). For the same molecule, the GI50 in the assay with Malme-3M is > 100 µM (inactive).

As for `COc1ccc(C(SCC(N)C(=O)O)(c2ccc(OC)cc2)c2ccc(OC)cc2)cc1` (centres undefined), the GI50 in the assay with SNB-75 was 11.3 µM (inactive); in the assay on NCI/ADR-RES it was 10.6 µM (inactive); in the assay with MDA-N, 3.5 µM (inactive); in the assay with CAKI-1, 17.3 µM (inactive); in the assay on U-251, 14.8 µM (inactive); in the assay with HL-60, 14 µM (inactive). The GI50 is 13.2 µM (inactive) with NCI-H226; 12.9 µM (inactive) with HCC 2998; 11.8 µM (inactive) in the assay with SK-MEL-28; 10.2 µM (inactive) with M14; 12 µM (inactive) in the assay with SK-MEL-2; 6.98 µM (inactive) in the assay on HCT-116. In addition, the GI50 in the assay on T47D was 12.2 µM (inactive); in the assay on PC-3, 11.1 µM (inactive); in the assay on SK-OV-3, 21.2 µM (inactive); with SF-268 it was 13.4 µM (inactive); in the assay with SK-MEL-5, > 10 µM (inactive); with NCI-H522 it was 14.1 µM (inactive). In the assay with Malme-3M, the GI50 was 10.8 µM (inactive).
